Patent US10358436B2, “Kinase inhibitors and method of treating cancer” (University Health Network, priority 2010, dated 2019)

How the values were obtained:
FGFR4 kinase = FGFR4 kinase (Homo sapiens (Human), UniProt P22455); assay: Kinase selectivity assay (CEREP HTRF panel); type: biochemical
TRKA = TRKA (Homo sapiens (Human), UniProt P04629); assay: Kinase selectivity assay (CEREP HTRF panel); type: biochemical
JNK 2 = JNK 2 (Homo sapiens (Human), UniProt P45984); assay: Kinase selectivity assay (CEREP HTRF panel); type: biochemical
PKCbeta 1 = PKCbeta 1 (Homo sapiens (Human), UniProt P05771); assay: Kinase selectivity assay (CEREP HTRF panel); type: biochemical
PDGFRbeta kinase = PDGFRbeta kinase (Homo sapiens (Human), UniProt P09619); assay: Kinase selectivity assay (CEREP HTRF panel); type: biochemical
IRK (InsR) = IRK (InsR) (Homo sapiens (Human), UniProt P06213); assay: Kinase selectivity assay (CEREP HTRF panel); type: biochemical
Lyn kinase = Lyn kinase (Homo sapiens (Human), UniProt P07948); assay: Kinase selectivity assay (CEREP HTRF panel); type: biochemical
ERK1 = ERK1 (Homo sapiens (Human), UniProt P27361); assay: Kinase selectivity assay (CEREP HTRF panel); type: biochemical
c-Met kinase = c-Met kinase (Homo sapiens (Human), UniProt P08581); assay: Kinase selectivity assay (CEREP HTRF panel); type: biochemical
CHK1 = CHK1 (Homo sapiens (Human), UniProt O14757); assay: Kinase selectivity assay (CEREP HTRF panel); type: biochemical
MEK1/MAP2K1 = MEK1/MAP2K1 (Homo sapiens (Human), UniProt Q02750); assay: Kinase selectivity assay (CEREP HTRF panel); type: biochemical
HUV-EC-C cells = assay: In vitro angiogenesis assay (tube formation); type: cell-based; conditions: 4 hr
Method: Activity against these RTKs can result in antiangiogenic activity which is associated with slowed tumor growth and/or tumor regression. To measure the antiangiogenic effects of compounds of the invention, selected examples were tested in an angiogenesis assay as described below.
HUV-EC-C cells were obtained from the American Type Culture Collection (ATCC, CRL-1730), and were used at early passage for the assay. The in vitro Angiogenesis Assay Kit (Chemicon) was used according to the manufacturer's recommendation. An ice-cold mixture of ECMatrix was transferred into a precooled 96-well plate. After the matrix solution had solidified (>1 hr incubation at 37° C.), 8,000 cells were mixed with the appropriate inhibitor concentration (in 100 microliters EGM-2) and plated into each well. The clinical antiangiogenic, Sutent was used as a positive control in comparison to a compound of the invention, A13. After incubation at 37° C. for 4 hr, tube formation was inspected. Two methods, pattern recognition and branch point counting, were used to quantify the progression of angiogenesis and expressed as a percentage of the control tube count (FIGS. 1 and 2).

PKCgamma = PKCgamma (Homo sapiens (Human), UniProt P05129); assay: Kinase selectivity assay (CEREP HTRF panel); type: biochemical
RSK2 = RSK2 (Homo sapiens (Human), UniProt P51812); assay: Kinase selectivity assay (CEREP HTRF panel); type: biochemical
CDC2/CDK1 (cycB) = CDC2/CDK1 (cycB) (Homo sapiens (Human), UniProt P06493); assay: Kinase selectivity assay (CEREP HTRF panel); type: biochemical
EphB4 kinase = EphB4 kinase (Homo sapiens (Human), UniProt P54760); assay: Kinase selectivity assay (CEREP HTRF panel); type: biochemical
Akt1/PKBalpha = Akt1/PKBalpha (Homo sapiens (Human), UniProt P31749); assay: Kinase selectivity assay (CEREP HTRF panel); type: biochemical
p38delta kinase = p38delta kinase (Homo sapiens (Human), UniProt O15264); assay: Kinase selectivity assay (CEREP HTRF panel); type: biochemical
PKA = PKA (Homo sapiens (Human), UniProt P17612); assay: Kinase selectivity assay (CEREP HTRF panel); type: biochemical
PLK2 = PLK2 (Homo sapiens (Human), UniProt Q9NYY3); assay: PLK2 inhibition assay (Z-Lyte); type: biochemical
Method: PLK2 inhibition was determined using the Z-Lyte assay kit from Invitrogen (cat #PV3802). The assay was performed using the recommended manufacturer's instructions with 60 μM ATP and 133 nM PLK2 (Invitrogen cat #PV4204). The % inhibition values were determined according to the manufacturer's directions and IC50 values were obtained using a non-linear 4 point logistic curve fit (XLfit4, IDBS)

CHK2 = CHK2 (Homo sapiens (Human), UniProt O96017); assay: Kinase selectivity assay (CEREP HTRF panel); type: biochemical
CaMK4 = CaMK4 (Homo sapiens (Human), UniProt Q16566); assay: Kinase selectivity assay (CEREP HTRF panel); type: biochemical
PDK1 = PDK1 (Homo sapiens (Human), UniProt O15530); assay: Kinase selectivity assay (CEREP HTRF panel); type: biochemical
Lck = Lck (Homo sapiens (Human), UniProt P06239); assay: Kinase selectivity assay (CEREP HTRF panel); type: biochemical
Ret kinase = Ret kinase (Homo sapiens (Human), UniProt P07949); assay: Kinase selectivity assay (CEREP HTRF panel); type: biochemical
Abl = Abl (Homo sapiens (Human), UniProt P00519); assay: Kinase selectivity assay (CEREP HTRF panel); type: biochemical
IGF1R kinase = IGF1R kinase (Homo sapiens (Human), UniProt P08069); assay: Kinase selectivity assay (CEREP HTRF panel); type: biochemical
Fyn kinase = Fyn kinase (Homo sapiens (Human), UniProt P06241); assay: Kinase selectivity assay (CEREP HTRF panel); type: biochemical
FLT3 = FLT3 (Homo sapiens (Human), UniProt P36888); assay: Kinase selectivity assay (CEREP HTRF panel); type: biochemical
Method: (§1) The assays were performed using standard HTRF assay methods as documented by CEREP against the human orthologues of Ab1 kinase, Akt1/PKBa, AMPKa, BMX kinase (Etk), Brk, CaMK2a, CaMK4, CDC2/CDK1 (cycB), CHK1, CHK2, c-Met kinase, CSK, EphB4 kinase, ERK1, ERK2 (P42mapk), FGFR2 kinase, FGFR4 kinase, FLT-1 kinase (VEGFR1), FLT-3 kinase, Fyn kinase, IGF1R kinase, IRK (InsR), JNK 2, KDR kinase (VEGFR2), Lck kinase, Lyn kinase, MAPKAPK2, MEK1/MAP2K1, p38a kinase, p38d kinase, p38 g kinase, PDGFRb kinase, PDK1, PKA, PKCa, PKCb1, PKCb2, PKCg, Ret kinase, ROCK2, RSK2, Src kinase, Syk, and TRKA (Table 3).

Src kinase = Src kinase (Homo sapiens (Human), UniProt P12931); assay: Kinase selectivity assay (CEREP HTRF panel); type: biochemical
PKCalpha = PKCalpha (Homo sapiens (Human), UniProt P17252); assay: Kinase selectivity assay (CEREP HTRF panel); type: biochemical
MAPKAPK2 = MAPKAPK2 (Homo sapiens (Human), UniProt P49137); assay: Kinase selectivity assay (CEREP HTRF panel); type: biochemical
p38alpha kinase = p38alpha kinase (Homo sapiens (Human), UniProt Q16539); assay: Kinase selectivity assay (CEREP HTRF panel); type: biochemical
PLK3 = PLK3 (Homo sapiens (Human), UniProt Q9H4B4); assay: PLK3 inhibition assay (Z-Lyte); type: biochemical
Method: PLK3 inhibition was determined using the Z-Lyte assay kit from Invitrogen (cat #PV3802). The assay was performed using the recommended manufacturer's instructions with 100 μM ATP and 21 nM PLK3 (Invitrogen cat #PV3812). The % inhibition values were determined according to the manufacturer's directions and IC50 values were obtained using a non-linear 4 point logistic curve fit (XLfit4, IDBS).

PKCbeta 2 = PKCbeta 2 (Homo sapiens (Human), UniProt P05771); assay: Kinase selectivity assay (CEREP HTRF panel); type: biochemical
BMX kinase (Etk) = BMX kinase (Etk) (Homo sapiens (Human), UniProt P51813); assay: Kinase selectivity assay (CEREP HTRF panel); type: biochemical
KDR kinase (VEGFR2) = KDR kinase (VEGFR2) (Homo sapiens (Human), UniProt P35968); assay: Kinase selectivity assay (CEREP HTRF panel); type: biochemical
Method: as §1

ROCK2 = ROCK2 (Homo sapiens (Human), UniProt O75116); assay: Kinase selectivity assay (CEREP HTRF panel); type: biochemical
CSK = CSK (Homo sapiens (Human), UniProt P41240); assay: Kinase selectivity assay (CEREP HTRF panel); type: biochemical
p38gamma kinase = p38gamma kinase (Homo sapiens (Human), UniProt P53778); assay: Kinase selectivity assay (CEREP HTRF panel); type: biochemical
Brk = Brk (Homo sapiens (Human), UniProt Q13882); assay: Kinase selectivity assay (CEREP HTRF panel); type: biochemical
ERK2 (P42mapk) = ERK2 (P42mapk) (Homo sapiens (Human), UniProt P28482); assay: Kinase selectivity assay (CEREP HTRF panel); type: biochemical; conditions: read-out: % Inhibition @ 10 uM, ERK (P42mapk)
CaMK2alpha = CaMK2alpha (Homo sapiens (Human), UniProt Q9UQM7); assay: Kinase selectivity assay (CEREP HTRF panel); type: biochemical
FLT-1 kinase (VEGFR1) = FLT-1 kinase (VEGFR1) (Homo sapiens (Human), UniProt P17948); assay: Kinase selectivity assay (CEREP HTRF panel); type: biochemical

Sequence of Brk (Q13882 whole entry): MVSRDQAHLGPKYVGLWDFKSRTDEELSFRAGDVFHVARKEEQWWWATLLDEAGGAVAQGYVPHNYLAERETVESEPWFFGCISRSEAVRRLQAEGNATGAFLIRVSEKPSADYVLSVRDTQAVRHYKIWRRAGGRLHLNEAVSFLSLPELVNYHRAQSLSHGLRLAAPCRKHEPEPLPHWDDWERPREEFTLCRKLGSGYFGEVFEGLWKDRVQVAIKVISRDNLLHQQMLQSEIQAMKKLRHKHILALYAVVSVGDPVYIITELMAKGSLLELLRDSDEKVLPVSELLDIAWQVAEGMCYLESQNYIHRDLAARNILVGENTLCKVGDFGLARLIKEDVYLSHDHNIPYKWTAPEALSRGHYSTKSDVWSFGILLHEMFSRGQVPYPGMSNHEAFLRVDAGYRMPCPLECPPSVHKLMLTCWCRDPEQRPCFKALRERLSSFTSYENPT
Sequence of TRKA (P04629 33-796): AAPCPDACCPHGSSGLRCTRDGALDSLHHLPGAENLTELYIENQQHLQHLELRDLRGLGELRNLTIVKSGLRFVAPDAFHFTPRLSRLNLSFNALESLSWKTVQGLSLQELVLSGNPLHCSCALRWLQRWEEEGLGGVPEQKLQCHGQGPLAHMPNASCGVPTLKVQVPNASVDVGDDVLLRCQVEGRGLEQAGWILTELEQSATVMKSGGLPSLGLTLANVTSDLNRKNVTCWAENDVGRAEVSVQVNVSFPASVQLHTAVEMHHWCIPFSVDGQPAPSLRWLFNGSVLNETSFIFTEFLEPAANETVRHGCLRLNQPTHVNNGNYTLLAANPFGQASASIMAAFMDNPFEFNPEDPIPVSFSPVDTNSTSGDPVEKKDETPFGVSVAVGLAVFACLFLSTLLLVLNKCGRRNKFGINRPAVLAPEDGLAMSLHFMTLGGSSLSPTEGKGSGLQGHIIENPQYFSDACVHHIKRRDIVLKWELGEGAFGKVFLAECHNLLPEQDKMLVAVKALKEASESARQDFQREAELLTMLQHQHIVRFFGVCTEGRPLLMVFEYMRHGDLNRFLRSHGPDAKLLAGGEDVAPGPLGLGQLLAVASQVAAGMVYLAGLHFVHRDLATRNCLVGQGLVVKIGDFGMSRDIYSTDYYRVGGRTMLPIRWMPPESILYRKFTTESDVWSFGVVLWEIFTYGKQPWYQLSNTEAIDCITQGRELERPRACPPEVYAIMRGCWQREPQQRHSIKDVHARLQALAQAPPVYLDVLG
Sequence of PDK1 (O15530 whole entry): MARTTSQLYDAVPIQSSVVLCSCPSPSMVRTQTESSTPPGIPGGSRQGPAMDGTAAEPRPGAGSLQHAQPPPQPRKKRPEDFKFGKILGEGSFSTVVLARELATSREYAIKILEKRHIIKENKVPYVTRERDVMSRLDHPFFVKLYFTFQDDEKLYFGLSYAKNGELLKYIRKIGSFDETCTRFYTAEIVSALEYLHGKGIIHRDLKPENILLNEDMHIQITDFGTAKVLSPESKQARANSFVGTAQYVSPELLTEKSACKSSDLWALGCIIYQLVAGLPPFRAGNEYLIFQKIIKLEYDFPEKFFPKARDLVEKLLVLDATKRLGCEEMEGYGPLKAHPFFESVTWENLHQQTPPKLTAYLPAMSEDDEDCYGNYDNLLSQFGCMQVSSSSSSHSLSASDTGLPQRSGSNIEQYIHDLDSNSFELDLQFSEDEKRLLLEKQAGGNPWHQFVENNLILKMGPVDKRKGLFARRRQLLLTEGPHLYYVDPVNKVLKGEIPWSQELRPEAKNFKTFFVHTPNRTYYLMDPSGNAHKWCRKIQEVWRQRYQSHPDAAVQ
Sequence of p38delta kinase (O15264 whole entry): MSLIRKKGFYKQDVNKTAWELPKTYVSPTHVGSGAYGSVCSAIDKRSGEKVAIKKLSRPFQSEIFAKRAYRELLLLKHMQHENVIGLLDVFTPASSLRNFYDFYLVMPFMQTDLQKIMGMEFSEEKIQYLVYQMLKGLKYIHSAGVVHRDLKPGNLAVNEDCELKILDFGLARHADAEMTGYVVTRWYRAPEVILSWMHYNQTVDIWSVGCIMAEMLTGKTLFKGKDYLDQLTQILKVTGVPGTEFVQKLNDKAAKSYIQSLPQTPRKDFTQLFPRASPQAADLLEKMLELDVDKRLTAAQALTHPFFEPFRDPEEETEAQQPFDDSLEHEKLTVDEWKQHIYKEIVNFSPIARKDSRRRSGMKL
Sequence of Abl (P00519 whole entry): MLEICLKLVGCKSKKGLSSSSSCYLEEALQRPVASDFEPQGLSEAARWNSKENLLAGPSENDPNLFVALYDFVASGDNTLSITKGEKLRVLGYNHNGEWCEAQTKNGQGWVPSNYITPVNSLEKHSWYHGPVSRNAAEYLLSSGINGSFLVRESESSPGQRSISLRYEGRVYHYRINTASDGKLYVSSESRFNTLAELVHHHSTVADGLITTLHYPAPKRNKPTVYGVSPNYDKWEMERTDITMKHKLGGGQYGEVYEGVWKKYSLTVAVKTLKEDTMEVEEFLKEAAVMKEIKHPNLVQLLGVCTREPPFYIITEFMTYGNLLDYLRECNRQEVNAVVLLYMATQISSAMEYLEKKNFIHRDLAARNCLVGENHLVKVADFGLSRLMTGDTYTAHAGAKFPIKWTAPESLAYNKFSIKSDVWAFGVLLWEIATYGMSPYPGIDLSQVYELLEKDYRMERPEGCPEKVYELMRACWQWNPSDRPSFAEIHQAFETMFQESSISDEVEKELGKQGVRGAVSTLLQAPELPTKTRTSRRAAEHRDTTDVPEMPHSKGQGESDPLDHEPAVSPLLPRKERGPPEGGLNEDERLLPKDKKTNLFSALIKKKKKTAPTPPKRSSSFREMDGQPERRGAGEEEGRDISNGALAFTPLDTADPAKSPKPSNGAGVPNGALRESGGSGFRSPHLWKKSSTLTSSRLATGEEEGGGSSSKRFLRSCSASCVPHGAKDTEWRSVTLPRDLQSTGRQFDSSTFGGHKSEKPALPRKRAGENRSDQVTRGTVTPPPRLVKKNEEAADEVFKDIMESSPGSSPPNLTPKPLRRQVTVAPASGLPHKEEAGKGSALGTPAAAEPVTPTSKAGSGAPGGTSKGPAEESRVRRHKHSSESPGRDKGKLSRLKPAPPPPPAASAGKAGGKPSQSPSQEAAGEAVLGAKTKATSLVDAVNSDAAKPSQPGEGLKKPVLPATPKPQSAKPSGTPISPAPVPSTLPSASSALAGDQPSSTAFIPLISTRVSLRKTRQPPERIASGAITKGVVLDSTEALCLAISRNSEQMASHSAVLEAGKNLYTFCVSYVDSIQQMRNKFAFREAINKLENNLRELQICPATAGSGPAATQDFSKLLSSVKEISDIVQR
Sequence of RSK2 (P51812 whole entry): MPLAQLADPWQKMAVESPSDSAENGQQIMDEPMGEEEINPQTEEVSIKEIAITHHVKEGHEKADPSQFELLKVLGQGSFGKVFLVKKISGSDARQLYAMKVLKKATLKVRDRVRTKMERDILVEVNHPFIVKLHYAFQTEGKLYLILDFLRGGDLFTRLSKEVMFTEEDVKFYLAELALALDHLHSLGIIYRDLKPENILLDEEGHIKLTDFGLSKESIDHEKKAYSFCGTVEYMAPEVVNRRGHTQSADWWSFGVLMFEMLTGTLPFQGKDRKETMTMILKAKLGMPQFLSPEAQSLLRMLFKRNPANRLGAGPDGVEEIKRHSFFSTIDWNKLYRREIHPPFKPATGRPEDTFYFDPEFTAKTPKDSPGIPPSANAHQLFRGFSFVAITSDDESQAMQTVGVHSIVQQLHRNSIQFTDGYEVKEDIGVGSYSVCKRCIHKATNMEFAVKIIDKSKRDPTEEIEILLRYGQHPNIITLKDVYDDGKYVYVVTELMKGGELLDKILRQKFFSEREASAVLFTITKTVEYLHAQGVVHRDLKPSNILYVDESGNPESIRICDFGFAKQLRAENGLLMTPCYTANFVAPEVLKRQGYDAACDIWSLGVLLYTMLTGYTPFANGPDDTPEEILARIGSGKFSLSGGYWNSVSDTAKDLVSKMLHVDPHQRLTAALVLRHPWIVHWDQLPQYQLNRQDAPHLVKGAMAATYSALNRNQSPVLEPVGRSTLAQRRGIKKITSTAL

O=C1Nc2ccccc2[C@]12C[C@H]2c1ccc2c(/C=C/c3ccncc3)n[nH]c2c1 (relative stereo) [Example A22, 1R*,2S*)-(E)-2-(3-(2-(pyridin-4-yl)vinyl)-1H-indazol-6-yl)spiro-[cyclo-propane-1,3′-indolin]-2′-one]
inhibition at 10 µM (FGFR4 kinase): 56%
inhibition at 10 µM (TRKA): 100%
inhibition at 10 µM (JNK 2): 32%
inhibition at 10 µM (PKCbeta 1): 0%
inhibition at 10 µM (PDGFRbeta kinase): 88%
inhibition at 10 µM (IRK (InsR)): 21%
inhibition at 10 µM (Lyn kinase): 99%
inhibition at 10 µM (ERK1): 8%
inhibition at 10 µM (c-Met kinase): 97%
inhibition at 10 µM (CHK1): 37%
inhibition at 10 µM (MEK1/MAP2K1): 12%
anti-angiogenic effect (tube formation) (HUV-EC-C cells): anti-agiogenic effects at submicromolar concentrations
inhibition at 10 µM (PKCgamma): 8%
inhibition at 10 µM (RSK2): 48%
inhibition at 10 µM (CDC2/CDK1 (cycB)): 93%
inhibition at 10 µM (EphB4 kinase): 99%
inhibition at 10 µM (Akt1/PKBalpha): -1%
inhibition at 10 µM (p38delta kinase): -22%
inhibition at 10 µM (PKA): -6%
inhibition at 10 µM (PLK2): ≤ 50%
inhibition at 10 µM (CHK2): 4%
inhibition at 10 µM (CaMK4): -8%
inhibition at 10 µM (PDK1): 69%
inhibition at 10 µM (Lck): 97%
inhibition at 10 µM (Ret kinase): 99%
inhibition at 10 µM (Abl): 97%
inhibition at 10 µM (IGF1R kinase): 22%
inhibition at 10 µM (Fyn kinase): 87%
inhibition at 10 µM (FLT3): 100%
inhibition at 10 µM (Src kinase): 26%
inhibition at 10 µM (PKCalpha): 7%
inhibition at 10 µM (MAPKAPK2): 4%
inhibition at 10 µM (p38alpha kinase): 32%
inhibition at 10 µM (PLK3): ≤ 50%
inhibition at 10 µM (PKCbeta 2): 11%
inhibition at 10 µM (BMX kinase (Etk)): 71%
inhibition at 10 µM (KDR kinase (VEGFR2)): 98%
inhibition at 10 µM (ROCK2): 88%
inhibition at 10 µM (CSK): 99%
inhibition at 10 µM (p38gamma kinase): -15%
inhibition at 10 µM (Brk): 41%
inhibition at 10 µM (ERK2 (P42mapk)): 11%

O=C1Nc2ccccc2[C@]12C[C@H]2c1ccc2cn[nH]c2c1 (racemic) [Example A2, (1R*,2S*)-2-(1H-indazol-6-yl)spiro[cyclopropane-1,3′-indolin]-2′-one]
inhibition at 10 µM (FGFR4 kinase): 0%
inhibition at 10 µM (TRKA): 54%
inhibition at 10 µM (JNK 2): -2%
inhibition at 10 µM (PKCbeta 1): 1%
inhibition at 10 µM (PDGFRbeta kinase): 4%
inhibition at 10 µM (IRK (InsR)): 4%
inhibition at 10 µM (Lyn kinase): 26%
inhibition at 10 µM (ERK1): 4%
inhibition at 10 µM (c-Met kinase): 15%
inhibition at 10 µM (CHK1): -4%
inhibition at 10 µM (MEK1/MAP2K1): 4%
inhibition at 10 µM (PKCgamma): 7%
inhibition at 10 µM (RSK2): 17%
inhibition at 10 µM (EphB4 kinase): 11%
inhibition at 10 µM (Akt1/PKBalpha): -2%
inhibition at 10 µM (p38delta kinase): -10%
inhibition at 10 µM (PKA): 0%
inhibition at 10 µM (CaMK2alpha): 41%
inhibition at 10 µM (CHK2): -10%
inhibition at 10 µM (CaMK4): 7%
inhibition at 10 µM (PDK1): 4%
inhibition at 10 µM (Lck): 17%
inhibition at 10 µM (Ret kinase): 14%
inhibition at 10 µM (Abl): 3%
inhibition at 10 µM (IGF1R kinase): 20%
inhibition at 10 µM (Fyn kinase): 7%
inhibition at 10 µM (FLT3): 62%
inhibition at 10 µM (Src kinase): -10%
inhibition at 10 µM (PKCalpha): -2%
inhibition at 10 µM (MAPKAPK2): -4%
inhibition at 10 µM (p38alpha kinase): 6%
inhibition at 10 µM (PKCbeta 2): 4%
inhibition at 10 µM (BMX kinase (Etk)): -3%
inhibition at 10 µM (KDR kinase (VEGFR2)): 14%
inhibition at 10 µM (ROCK2): 39%
inhibition at 10 µM (CSK): 9%
inhibition at 10 µM (p38gamma kinase): 4%
inhibition at 10 µM (Brk): 1%
inhibition at 10 µM (ERK2 (P42mapk)): 9%
inhibition at 10 µM (FLT-1 kinase (VEGFR1)): 1%
